Reference: patent publication US20220362312A1, “CANNABIDIOL-ENHANCED PROBIOTIC COMPOSITIONS AND USES THEREOF FOR TREATMENT OF INFECTIONS” (BUZZELET DEVELOPMENT AND TECHNOLOGIES LTD., priority 2019, published 2022)

Tests used:
[1] = system: Candida albicans; assay: Candida albicans biofilm formation with cannabidiol and/or lactobacillus Casei, crystal violet staining; type: cell-based; conditions: as compared to Candida albicans alone (row 4); incubation 24 hours
Description: A study is performed to evaluate the efficacy of a composition comprising cannabidiol and lactobacillus Casei in treating or preventing an infection by pathogenic microorganisms comprising Candida albicans, via preventing biofilm formation.
RPMI medium supplemented with 1% glucose is introduced into each well of a 24-well plate.
Candida albicans contacted with cannabidiol are added to each well of row 1.
Candida albicans contacted with lactobacillus Casei are added to each well of row 2.
Candida albicans contacted with cannabidiol and lactobacillus Casei are added to each well of row 3.
Candida albicans alone are added to each well of row 4.
After incubation for 24 hours, spent medium and free-floating fungi are removed by gentle aspiration and the wells washed twice with phosphate-buffered saline (PBS, pH 7.4).
The presence of biofilm is quantified by crystal violet staining as described above for Example 3.

[2] = system: Escherichia coli; assay: Disc-diffusion agar method, antibacterial effect; conditions: for growth inhibition: 48 hours at 30° C.; for effect on growth: at the concentrations tested (0.5 μg and 2 μg)
[3] = system: Bacillus Thuringiensis; assay: Disc-diffusion agar method, antibacterial effect; conditions: for area of inhibited bacterial growth / growth inhibition: 48 hours at 30° C.; for effect on growth: at the concentrations tested (0.5 μg and 2 μg)
[4] = system: Staphylococcus Aureus; assay: Disc-diffusion agar method, antibacterial effect; conditions: for growth inhibition: 48 hours at 30° C.; for effect on growth: at the concentrations tested (0.5 μg and 2 μg)
[5] = system: Lactobacillus casei; assay: Disc-diffusion agar method, antibacterial effect; conditions: for growth inhibition: Lactobacillus casei, 48 hours at 30° C.; for effect on growth: lactobacillus Casei, at the concentrations tested (0.5 μg and 2 μg)

| Compound | biofilm formation [1] | growth inhibition ([2]; 0.5 μg on disc) | growth inhibition ([2]; 2 μg on disc) | effect on growth [2] | area of inhibited bacterial growth ([3]; 0.5 μg on disc) | growth inhibition ([3]; 0.5 μg on disc) | area of inhibited bacterial growth ([3]; 2 μg on disc) | growth inhibition ([3]; 2 μg on disc) | effect on growth [3] | growth inhibition ([4]; 0.5 μg on disc) | growth inhibition ([4]; 2 μg on disc) | effect on growth [4] | growth inhibition ([5]; 0.5 μg on disc) | growth inhibition ([5]; 2 μg on disc) | effect on growth [5] |
| --- | --- | --- | --- | --- | --- | --- | --- | --- | --- | --- | --- | --- | --- | --- | --- |
| C=C(C)[C@@H]1CCC(C)=C[C@H]1c1c(O)cc(CCCCC)cc1O [CBD, cannabidiol] | significantly inhibited | − | − | no effect | 2 mm | + | 3 mm | + | inhibit growth | − | − | no effect | − | − | no effect |
| CCCCCc1cc(O)c2c(c1)OC(C)(C)[C@@H]1CCC(C)=C[C@@H]21 [THC, tetrahydrocannabiniol] |  | − | − | no effect | 1 mm | + | < 1 mm | + | inhibit growth | − | − | no effect | − | − | no effect |
